# Patent US11731943B2, “Therapeutic compounds, compositions and methods of use thereof” (priority 2016, dated 2023)
# Read-outs that look alike come from different tables or passages of the source.
# What was measured:
# [1] = system: JAK1-dependent STAT6 phosphorylation downstream of IL-13 stimulation in BEAS-2B human bronchial epithelial cells; assay: JAK1 pathway assay in BEAS-2B cells (IL-13-pSTAT6, MSD); assay type: cell-based; settings: BEAS-2B cells, IL-13 stimulation, read-out: IL-13 p-STAT6 BEAS-2B IC50
# [2] = molecular target: isolated recombinant JAK1 kinase domain (Homo sapiens (Human), UniProt P23458); assay: JAK1 enzyme assay (Caliper LabChip, Ki); assay type: biochemical; settings: read-out: JAK1 Ki
# Procedure, shortened: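 Recombinant human JAK1 kinase domain phosphorylating an N-terminally 5-carboxyfluorescein-labelled JAK3-derived peptide, 30 min at 22 °C, stopped with EDTA (50 mM final). Phosphorylated fraction of total peptide read by Caliper LabChip mobility shift; Ki from Morrison tight-binding fit corrected for ATP competition (Ki=Ki,app/(1+[ATP]/Km,app)).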
# [3] = molecular target: isolated recombinant JAK2 kinase domain (Homo sapiens (Human), UniProt O60674); assay: JAK2 enzyme assay (Caliper LabChip, Ki); assay type: biochemical
# Procedure, shortened: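 Recombinant human JAK1 or JAK2 kinase domain phosphorylating a 5-carboxyfluorescein-labelled JAK3-derived peptide; 30 min at 22 °C, stopped with EDTA (50 mM final). Phosphorylated product measured as a fraction of total peptide by Caliper LabChip mobility shift.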
# Chain of isolated recombinant JAK2 kinase domain (O60674 849-1124): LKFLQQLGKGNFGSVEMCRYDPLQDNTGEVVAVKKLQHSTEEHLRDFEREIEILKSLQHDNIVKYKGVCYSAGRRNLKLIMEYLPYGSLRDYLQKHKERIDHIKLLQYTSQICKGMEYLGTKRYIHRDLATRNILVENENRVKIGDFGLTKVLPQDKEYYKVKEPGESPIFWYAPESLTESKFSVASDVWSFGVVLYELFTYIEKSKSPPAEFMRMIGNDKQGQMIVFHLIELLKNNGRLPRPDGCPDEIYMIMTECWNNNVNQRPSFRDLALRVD
# Chain of isolated recombinant JAK1 kinase domain (P23458 875-1153): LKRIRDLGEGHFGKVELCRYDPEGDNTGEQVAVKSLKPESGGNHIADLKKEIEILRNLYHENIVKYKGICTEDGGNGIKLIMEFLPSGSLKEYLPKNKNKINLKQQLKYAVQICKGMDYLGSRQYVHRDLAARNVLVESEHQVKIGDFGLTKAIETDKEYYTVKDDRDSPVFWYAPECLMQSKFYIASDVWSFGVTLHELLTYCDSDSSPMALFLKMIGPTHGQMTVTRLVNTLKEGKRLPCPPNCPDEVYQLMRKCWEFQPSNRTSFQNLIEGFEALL
Compound,"IC50 ([1]; Homo sapiens, BEAS-2B) [nM]",Ki [2] [nM],Ki [3] [nM],IC50 [1] [nM]
"N#CCC1(n2cc(C(N)=O)c(NC(=O)C3CC3)n2)CCN(Cc2ccc(-n3nccn3)cc2)CC1F (stereo not drawn) [Example 199, 1-[4-(cyanomethyl)-3-fluoro-1-[[4-(triazol-2-yl)phenyl]methyl]-4-piperidyl]-3-(cyclopropanecarbonylamino) pyrazole-4-carboxamide]",64,0.52,0.55,–
"COC(=O)Nc1nn(C2(CC#N)CCN(Cc3ccc(-n4nccn4)cc3)CC2F)cc1C(N)=O (stereo not drawn) [Example 200, methyl N-[4-carbamoyl-1-[4-(cyanomethyl)-3-fluoro-1-[[4-(triazol-2-yl)phenyl]methyl]-4-piperidyl]pyrazol-3-yl]carbamate]",39,0.51,0.96,–
"N#CCC1(n2cc(C(N)=O)c(NC(=O)C3CC3)n2)CCN(Cc2ccc(-c3ccccc3)nc2F)CC1F (stereo not drawn) [Example 201, 1-[4-(cyanomethyl)-3-fluoro-1-[(2-fluoro-6-phenyl-3-pyridyl)methyl]-4-piperidyl]-3-(cyclopropanecarbonylamino) pyrazole-4-carboxamide]",23,0.24,0.23,–
"N#CCC1(n2cc(C(N)=O)c(NC(=O)C3CC3)n2)CCN(Cc2cnc(-c3ccccc3)cc2F)CC1 [Example 202, 1-[4-(cyanomethyl)-1-[(4-fluoro-6-phenyl-3-pyridyl)methyl]-4-piperidyl]-3-(cyclopropanecarbonylamino) pyrazole-4-carboxamide]",74,0.55,0.74,–
"COC(=O)Nc1nn(C2(CC#N)CCN(Cc3ccc(-c4ccccc4)nc3F)CC2F)cc1C(N)=O (stereo not drawn) [Example 203, methyl N-[4-carbamoyl-1-[4-(cyanomethyl)-3-fluoro-1-[(2-fluoro-6-phenyl-3-pyridyl)methyl]-4-piperidyl]pyrazol-3-yl]carbamate]",15,0.25,0.22,–
"N#CCC1(n2cc(C(N)=O)c(NC(=O)C3CC3)n2)CCN(Cc2ccc(-c3ccccc3)cc2O)CC1 [Example 204, 1-[4-(cyanomethyl)-1-[(2-hydroxy-4-phenyl-phenyl)methyl]-4-piperidyl]-3-(cyclopropanecarbonylamino) pyrazole-4-carboxamide]",50,1,1.8,–
"N#CCC1(n2cc(C(N)=O)c(NC(=O)C3CC3)n2)CCC(N2CC(F)(c3ccccc3)C2)CC1 (stereo not drawn) [Example 205, 1-[1-(cyanomethyl)-4-(3-fluoro-3-phenyl-azetidin-1-yl)cyclohexyl]-3-(cyclopropanecarbonylamino) pyrazole-4-carboxamide]",82,0.89,5.9,–
"COC(=O)Nc1nn(C2(CC#N)CCN(Cc3cc(O)c(-c4ccccc4)cc3F)CC2)cc1C(N)=O [Example 206, methyl N-[4-carbamoyl-1-[4-(cyanomethyl)-1-[(2-fluoro-5-hydroxy-4-phenyl-phenyl)methyl]-4-piperidyl]pyrazol-3-yl]carbamate]",33,0.18,0.3,–
"N#CCC1(n2cc(C(N)=O)c(NC(=O)C3CC3)n2)CCN(Cc2cc(O)c(-c3ccccc3)cc2F)CC1F (stereo not drawn) [Example 207, 1-[4-(cyanomethyl)-3-fluoro-1-[(2-fluoro-5-hydroxy-4-phenyl-phenyl)methyl]-4-piperidyl]-3-(cyclopropanecarbonylamino) pyrazole-4-carboxamide]",29,0.11,0.13,–
"COC(=O)Nc1nn(C2(CC#N)CCN(Cc3cc(O)c(-c4ccccc4)cc3F)CC2F)cc1C(N)=O (stereo not drawn) [Example 208, methyl N-[4-carbamoyl-1-[4-(cyanomethyl)-3-fluoro-1-[(2-fluoro-5-hydroxy-4-phenyl-phenyl)methyl]-4-piperidyl]pyrazol-3-yl]carbamate]",28,0.17,0.21,–
"N#CCC1(n2cc(C(N)=O)c(NC(=O)OC3CC3)n2)CCN(Cc2ccc(-c3ccccc3)c(O)c2)CC1 [Example 209, cyclopropyl N-[4-carbamoyl-1-[4-(cyanomethyl)-1-[(3-hydroxy-4-phenyl-phenyl)methyl]-4-piperidyl]pyrazol-3-yl]carbamate]",98,0.49,3.8,–
"CCc1ccc(-c2ccc(CN3CCC(CC#N)(n4cc(C(N)=O)c(NC(=O)C5CC5)n4)C(F)C3)cc2O)cc1 (stereo not drawn) [Example 212, 1-[4-(cyanomethyl)-1-[[4-(4-ethylphenyl)-3-hydroxy-phenyl]methyl]-3-fluoro-4-piperidyl]-3-(cyclopropanecarbonylamino) pyrazole-4-carboxamide]",27,0.22,0.3,–
"Cc1c(CN2CCC(CC#N)(n3cc(C(N)=O)c(NC(=O)C4CC4)n3)C(F)C2)ccc(-c2ccccc2)c1O (stereo not drawn) [Example 213, 1-[4-(cyanomethyl)-3-fluoro-1-[(3-hydroxy-2-methyl-4-phenyl-phenyl)methyl]-4-piperidyl]-3-(cyclopropanecarbonylamino) pyrazole-4-carboxamide]",22,0.37,0.28,–
"N#CCC1(n2cc(C(N)=O)c(NC(=O)C3CC3)n2)CCN(Cc2ccc(-c3ccoc3)cc2)CC1F (stereo not drawn) [Example 214, 1-[4-(cyanomethyl)-3-fluoro-1-[[4-(3-furyl)phenyl]methyl]-4-piperidyl]-3-(cyclopropanecarbonylamino) pyrazole-4-carboxamide]",42,0.31,0.62,–
"N#CCC1(n2cc(C(N)=O)c(NC(=O)C3CC3)n2)CCN(Cc2ccc(-c3ccco3)cc2)CC1F (stereo not drawn) [Example 215, 1-[4-(cyanomethyl)-3-fluoro-1-[[4-(2-furyl)phenyl]methyl]-4-piperidyl]-3-(cyclopropanecarbonylamino) pyrazole-4-carboxamide]",12,0.24,0.25,–
"CCn1ccc(-c2ccc(CN3CCC(CC#N)(n4cc(C(N)=O)c(NC(=O)OC)n4)C(F)C3)cc2)n1 (stereo not drawn) [Example 216, methyl N-[4-carbamoyl-1-[4-(cyanomethyl)-1-[[4-(1-ethylpyrazol-3-yl)phenyl]methyl]-3-fluoro-4-piperidyl]pyrazol-3-yl]carbamate]",40,0.74,0.7,–
"CCn1ccc(-c2ccc(CN3CCC(CC#N)(n4cc(C(N)=O)c(NC(=O)C5CC5)n4)C(F)C3)cc2)n1 (stereo not drawn) [Example 217, 1-[4-(cyanomethyl)-1-[[4-(1-ethylpyrazol-3-yl)phenyl]methyl]-3-fluoro-4-piperidyl]-3-(cyclopropanecarbonylamino) pyrazole-4-carboxamide]",56,0.66,0.49,–
"N#CCC1(n2cc(C(N)=O)c(NC(=O)C3CC3C#N)n2)CCN(Cc2ccc(-c3ccccc3)cc2F)CC1F (stereo not drawn) [Example 218, 3-[(2-cyanocyclopropanecarbonyl)amino]-1-[4-(cyanomethyl)-3-fluoro-1-[(2-fluoro-4-phenyl-phenyl)methyl]-4-piperidyl]pyrazole-4-carboxamide]",–,0.35,0.59,28
"N#CCC1(n2cc(C(N)=O)c(NC(=O)C3CC3C#N)n2)CCN(Cc2ccc(-c3ccccc3)cc2F)CC1F (stereo not drawn) [Example 219, 3-[(2-cyanocyclopropanecarbonyl)amino]-1-[4-(cyanomethyl)-3-fluoro-1-[(2-fluoro-4-phenyl-phenyl)methyl]-4-piperidyl]pyrazole-4-carboxamide]",–,1.7,3.6,68
